Source: US10660877B2 (BRISTOL-MYERS SQUIBB COMPANY, priority 2016, dated 2020)
Read-outs that look alike come from different tables or passages of the source.

Legend:
human TLR8 = human TLR8 (Homo sapiens (Human), UniProt Q9NR97); test: TLR8 inhibition reporter assay (HEK-Blue cells, SEAP reporter, R848 stimulation);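 note: compounds tested from 0.05 nM to 50 µM, 22 h at 37 °C, SEAP measured with HEK-Blue Detection, inhibition relative to agonist plus DMSO versus a known inhibitor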
human TLR7 = human TLR7 (Homo sapiens (Human), UniProt Q9NYK1); test: TLR7 inhibition reporter assay (HEK-Blue cells, SEAP reporter, gardiquimod stimulation); format: cell-based
human TLR9 = human TLR9 (Homo sapiens (Human), UniProt Q9NR96); test: TLR9 inhibition reporter assay (HEK-Blue cells, SEAP reporter, ODN2006 stimulation);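 note: compounds tested over 0.05 nM to 50 µM, 22 h incubation, inhibition taken as SEAP signal drop from agonist plus DMSO wells toward a known inhibitor control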
Description: TLR7/8/9 Inhibition Reporter Assays
Briefly, cells are seeded into Greiner 384 well plates (15000 cells per well for TLR7, 20,000 for TLR8 and 25,000 for TLR9) and then treated with test compounds in DMSO to yield a final dose response concentration range of 0.05 nM-50 μM. […] After a 22 hour incubation at 37° C., 5% CO2, SEAP levels are determined with the addition of HEK-Blue™ Detection reagent (Invivogen), a cell culture medium that allows for detection of SEAP, according to manufacturer's specifications. The percent inhibition is determined as the % reduction in the HEK-Blue signal present in wells treated with agonist plus DMSO alone compared to wells treated with a known inhibitor.

[1] = read-out: TLR8 IC50, HEK-Blue cells, R848 15.9 μM
[2] = HEK-Blue cells, gardiquimod 7.5 μM
[3] = read-out: TLR9 IC50, HEK-Blue cells, ODN2006 5 nM
[4] = read-out: TLR8 IC50, HEK-Blue cells overexpressing human TLR8, R848 15.9 μM
[5] = HEK-Blue cells overexpressing human TLR7, gardiquimod 7.5 μM
[6] = read-out: TLR9 IC50, HEK-Blue cells overexpressing human TLR9, ODN2006 5 nM
[7] = TLR8 IC50, HEK-Blue cells overexpressing human TLR8, R848 15.9 μM
[8] = TLR9 IC50, HEK-Blue cells overexpressing human TLR9, ODN2006 5 nM

human TLR7, sequence (Q9NYK1 27-1049): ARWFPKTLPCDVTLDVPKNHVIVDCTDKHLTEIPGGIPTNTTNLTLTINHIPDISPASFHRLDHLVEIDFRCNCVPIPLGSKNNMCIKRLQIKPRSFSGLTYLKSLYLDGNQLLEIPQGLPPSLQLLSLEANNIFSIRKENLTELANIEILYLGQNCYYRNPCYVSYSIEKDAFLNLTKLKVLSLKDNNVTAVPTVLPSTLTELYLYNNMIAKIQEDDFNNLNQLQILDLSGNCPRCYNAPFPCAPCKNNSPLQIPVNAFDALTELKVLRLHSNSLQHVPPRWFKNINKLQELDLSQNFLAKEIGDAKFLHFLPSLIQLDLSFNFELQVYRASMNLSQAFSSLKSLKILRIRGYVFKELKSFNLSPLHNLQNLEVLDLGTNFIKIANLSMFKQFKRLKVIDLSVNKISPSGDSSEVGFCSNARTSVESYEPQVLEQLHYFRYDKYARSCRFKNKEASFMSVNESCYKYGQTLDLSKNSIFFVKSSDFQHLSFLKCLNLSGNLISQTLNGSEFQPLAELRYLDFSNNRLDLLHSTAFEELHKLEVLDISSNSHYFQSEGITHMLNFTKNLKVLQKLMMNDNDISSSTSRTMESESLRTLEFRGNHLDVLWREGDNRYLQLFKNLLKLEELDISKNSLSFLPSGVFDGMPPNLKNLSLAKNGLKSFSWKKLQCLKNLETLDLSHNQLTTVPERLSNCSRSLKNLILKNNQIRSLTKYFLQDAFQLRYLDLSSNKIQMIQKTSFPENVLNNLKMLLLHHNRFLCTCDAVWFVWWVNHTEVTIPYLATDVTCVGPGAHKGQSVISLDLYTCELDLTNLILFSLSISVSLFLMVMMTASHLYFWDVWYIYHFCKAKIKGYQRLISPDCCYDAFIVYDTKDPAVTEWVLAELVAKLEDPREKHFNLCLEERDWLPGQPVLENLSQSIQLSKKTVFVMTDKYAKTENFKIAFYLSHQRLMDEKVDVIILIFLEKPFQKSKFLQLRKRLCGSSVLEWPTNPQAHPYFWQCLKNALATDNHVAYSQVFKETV
human TLR9, sequence (Q9NR96 26-1032): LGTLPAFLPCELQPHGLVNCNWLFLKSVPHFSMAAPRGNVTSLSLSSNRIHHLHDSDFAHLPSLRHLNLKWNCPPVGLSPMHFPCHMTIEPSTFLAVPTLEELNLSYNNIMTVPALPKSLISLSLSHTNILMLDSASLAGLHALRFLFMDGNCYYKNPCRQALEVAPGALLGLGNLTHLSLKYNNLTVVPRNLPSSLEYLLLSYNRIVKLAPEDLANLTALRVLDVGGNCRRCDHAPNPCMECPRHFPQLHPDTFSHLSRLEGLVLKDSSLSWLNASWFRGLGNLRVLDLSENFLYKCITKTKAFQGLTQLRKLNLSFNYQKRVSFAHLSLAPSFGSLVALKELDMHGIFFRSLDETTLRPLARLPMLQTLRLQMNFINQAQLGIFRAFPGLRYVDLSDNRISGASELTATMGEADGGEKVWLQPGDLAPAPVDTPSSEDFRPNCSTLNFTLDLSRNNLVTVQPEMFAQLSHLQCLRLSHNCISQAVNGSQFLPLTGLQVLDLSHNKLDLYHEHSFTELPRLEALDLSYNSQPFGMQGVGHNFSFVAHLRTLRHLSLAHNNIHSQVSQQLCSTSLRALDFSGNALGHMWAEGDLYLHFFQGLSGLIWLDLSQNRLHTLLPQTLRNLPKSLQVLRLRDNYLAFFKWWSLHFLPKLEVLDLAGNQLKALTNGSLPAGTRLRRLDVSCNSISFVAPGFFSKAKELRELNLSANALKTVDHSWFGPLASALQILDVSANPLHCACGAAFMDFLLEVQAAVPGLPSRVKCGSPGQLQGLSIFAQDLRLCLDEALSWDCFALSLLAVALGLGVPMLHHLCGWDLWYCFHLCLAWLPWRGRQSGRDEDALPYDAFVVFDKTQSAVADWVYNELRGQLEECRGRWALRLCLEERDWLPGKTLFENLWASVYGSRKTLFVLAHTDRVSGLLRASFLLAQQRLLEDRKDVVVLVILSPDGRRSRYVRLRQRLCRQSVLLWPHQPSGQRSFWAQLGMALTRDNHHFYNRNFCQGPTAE
human TLR8, sequence (Q9NR97 27-1041): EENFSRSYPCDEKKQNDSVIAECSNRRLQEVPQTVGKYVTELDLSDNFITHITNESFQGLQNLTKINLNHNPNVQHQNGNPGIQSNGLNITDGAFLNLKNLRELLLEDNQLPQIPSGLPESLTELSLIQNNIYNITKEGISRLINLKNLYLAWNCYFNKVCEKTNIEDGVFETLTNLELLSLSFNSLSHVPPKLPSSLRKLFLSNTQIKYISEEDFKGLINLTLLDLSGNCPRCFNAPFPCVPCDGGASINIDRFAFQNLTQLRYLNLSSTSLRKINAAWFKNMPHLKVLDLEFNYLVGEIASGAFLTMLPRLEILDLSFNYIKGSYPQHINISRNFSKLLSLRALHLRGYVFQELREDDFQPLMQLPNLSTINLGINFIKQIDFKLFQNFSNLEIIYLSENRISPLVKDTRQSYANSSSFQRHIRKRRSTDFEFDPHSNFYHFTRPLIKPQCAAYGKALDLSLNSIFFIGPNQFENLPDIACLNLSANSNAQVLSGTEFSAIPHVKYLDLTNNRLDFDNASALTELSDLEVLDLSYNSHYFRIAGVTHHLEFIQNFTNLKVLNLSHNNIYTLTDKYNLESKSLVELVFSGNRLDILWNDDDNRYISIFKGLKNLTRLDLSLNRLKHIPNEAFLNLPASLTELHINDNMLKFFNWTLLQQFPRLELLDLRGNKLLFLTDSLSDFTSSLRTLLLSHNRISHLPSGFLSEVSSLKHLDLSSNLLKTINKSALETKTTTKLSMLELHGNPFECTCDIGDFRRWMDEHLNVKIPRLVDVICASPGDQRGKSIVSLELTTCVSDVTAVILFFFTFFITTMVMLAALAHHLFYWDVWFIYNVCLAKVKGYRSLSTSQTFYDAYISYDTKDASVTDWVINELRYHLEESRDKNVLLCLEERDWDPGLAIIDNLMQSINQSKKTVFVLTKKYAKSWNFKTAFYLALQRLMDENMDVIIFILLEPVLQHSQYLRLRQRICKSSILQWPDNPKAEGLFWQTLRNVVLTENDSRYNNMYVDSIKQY

Row | Compound | IC50 (human TLR8; [1]) [nM] | IC50 (human TLR7; [2]) [nM] | IC50 (human TLR9; [3]) [nM] | IC50 (human TLR8; [4]) [nM] | IC50 (human TLR7; [5]) [nM] | IC50 (human TLR9; [6]) [nM] | IC50 (human TLR8; [7]) [nM] | IC50 (human TLR9; [8]) [nM]
1 | Cc1cc(-c2[nH]c3ccc(C4CCN(C(C)CF)CC4)cc3c2C(C)C)c(C)cn1 (stereo not drawn) [Example 870, 2-(2,5-dimethylpyridin-4-yl)-5-(1-(1-fluoropropan-2-yl)piperidin-4-yl)-3-isopropyl-1H-indole] | 4.1 | 19.7 | 1440 |  |  |  |  | 
2 | Cc1nccc(-c2[nH]c3ccc(C4CCNCC4)cc3c2C(C)C)c1F [Example 53, 2-(3-fluoro-2-methylpyridin-4-yl)-3-isopropyl-5-(piperidin-4-yl)-1H-indole] |  |  |  | 1.2 | 2.9 | 2300 |  | 
3 | Cc1cc(-c2[nH]c3ccc(C4CCN(C(=O)CNCC5(C)CC5)CC4)cc3c2C(C)C)cc(C)n1 [Example 365, 1-(4-(2-(2,6-dimethylpyridin-4-yl)-3-isopropyl-1H-indol-5-yl)piperidin-1-yl)-2-(((1-methylcyclopropyl)methyl)amino)ethan-1-one] |  |  |  |  | 6.5 |  | 22.9 | 854
4 | COC(=O)C1CC(N2CCC(c3ccc4[nH]c(-c5ccnc(C)c5)c(C(C)C)c4c3)CC2)CCN1 (stereo not drawn) [Example 704, methyl 4-(3-isopropyl-2-(2-methylpyridin-4-yl)-1H-indol-5-yl)-[1,4′-bipiperidine]-2′-carboxylate] |  |  |  | 4.1 | 20.9 | 551 |  | 
5 | COc1cc(OC)nc(CN2CCC(c3ccc4[nH]c(-c5cc(C)ncc5C)c(C(C)C)c4c3)CC2)n1 [Example 693, 5-(1-((4,6-dimethoxypyrimidin-2-yl)methyl)piperidin-4-yl)-2-(2,5-dimethylpyridin-4-yl)-3-isopropyl-1H-indole] |  |  |  | 5.2 | 33.1 | 1680 |  | 
6 | COc1cc(-c2[nH]c3ccc(C4CCN(C5CCN(C)CC5)CC4)cc3c2C(C)C)ccn1 [Example 795, 3-isopropyl-2-(2-methoxypyridin-4-yl)-5-(1′-methyl-[1,4′-bipiperidin]-4-yl)-1H-indole] |  |  |  | 12.5 | 129 | 851 |  | 
7 | CNCCC(=O)N1CCC(c2ccc3[nH]c(-c4cc(C)nc(C)c4)c(C(C)C)c3c2)CC1 [Example 183, 1-(4-(2-(2,6-dimethylpyridin-4-yl)-3-isopropyl-1H-indol-5-yl)piperidin-1-yl)-3-(methylamino)propan-1-one] |  |  |  |  | 0.9 |  | 19.7 | 323
8 | CNC(=O)CN1CCC(c2ccc3[nH]c(-c4cc(C)nc(C5CC5)c4)c(C(C)C)c3c2)CC1 [Example 503, 2-(4-(2-(2-cyclopropyl-6-methylpyridin-4-yl)-3-isopropyl-1H-indol-5-yl)piperidin-1-yl)-N-methylacetamide] |  |  |  | 24.1 | 10.8 | 1230 |  | 
9 | CC(C)c1c(-c2ccnc(C(C)(C)O)c2)[nH]c2ccc(C3CCNCC3)cc12 [Example 58, 2-(4-(3-isopropyl-5-(piperidin-4-yl)-1H-indol-2-yl)pyridin-2-yl)propan-2-ol] |  |  |  | 667 | 31.2 | 888 |  | 
10 | Cc1cc(-c2[nH]c3ccc(C4CCN(C(=O)C5CCN(Cc6ccccc6)C5)CC4)cc3c2C(C)C)ccn1 (stereo not drawn) [Example 575, (1-benzylpyrrolidin-3-yl)(4-(3-isopropyl-2-(2-methylpyridin-4-yl)-1H-indol-5-yl)piperidin-1-yl)methanone] |  |  |  | 18.5 | 34 | 1060 |  | 
11 | COCCOC(=O)N1CCC(c2ccc3[nH]c(-c4ccnc(C)c4)c(C(C)C)c3c2)CC1 [Example 561, 2-methoxyethyl 4-(3-isopropyl-2-(2-methylpyridin-4-yl)-1H-indol-5-yl)piperidine-1-carboxylate] |  |  |  | 363 | 202 | 43900 |  | 
12 | Cc1cc(-c2[nH]c3ccc(C4CCN(CC5(C)COC5)CC4)cc3c2C(C)C)c(C)cn1 [Example 872, 2-(2,5-dimethylpyridin-4-yl)-3-isopropyl-5-(1-((3-methyloxetan-3-yl)methyl)piperidin-4-yl)-1H-indole] | 2.8 | 20.6 | 2320 |  |  |  |  | 
13 | Cc1cc(-c2[nH]c3ccc(C4CCN(C(=O)CN5CCC[C@H]5CO)CC4)cc3c2C(C)C)cc(C)n1 [Example 381, (S)-1-(4-(2-(2,6-dimethylpyridin-4-yl)-3-isopropyl-1H-indol-5-yl)piperidin-1-yl)-2-(2-(hydroxymethyl)pyrrolidin-1-yl)ethan-1-one] |  |  |  | 9.8 | 2.2 | 348 |  | 
14 | Cc1cc(-c2[nH]c3ccc(C4CCN(C(=O)CN5CC(F)(F)C[C@H]5CO)CC4)cc3c2C(C)C)cc(C)n1 [Example 403, (S)-2-(4,4-difluoro-2-(hydroxymethyl)pyrrolidin-1-yl)-1-(4-(2-(2,6-dimethylpyridin-4-yl)-3-isopropyl-1H-indol-5-yl)piperidin-1-yl)ethan-1-one] |  |  |  | 209 | 14.6 | 17600 |  | 
15 | CC(C)c1c(-c2c(Cl)cncc2Cl)[nH]c2ccc(C3CCNCC3)cc12 [Example 20, 2-(3,5-dichloropyridin-4-yl)-3-isopropyl-5-(piperidin-4-yl)-1H-indole] |  |  |  | 128 | 1660 | 7790 |  | 
16 | Cc1cc(-c2[nH]c3ccc(C4CCN(C(=O)CN5CCN(C)CC5)CC4)cc3c2C(C)C)cc(C)n1 [Example 163, 1-(4-(2-(2,6-dimethylpyridin-4-yl)-3-isopropyl-1H-indol-5-yl)piperidin-1-yl)-2-(4-methylpiperazin-1-yl)ethan-1-one] |  |  |  | 8.4 | 0.9 | 778 |  | 
17 | Cc1cc(-c2[nH]c3ccc(C4CCN(Cc5cncnc5)CC4)cc3c2C(C)C)cc(C)n1 [Example 434, 2-(2,6-dimethylpyridin-4-yl)-3-isopropyl-5-(1-(pyrimidin-5-ylmethyl)piperidin-4-yl)-1H-indole] |  |  |  |  | 35.3 |  | 10.5 | 755
18 | Cc1cc(-c2[nH]c3ccc(C4CCN(C(=O)[C@@H](N)CCCNC(N)=O)CC4)cc3c2C(C)C)ccn1 [Example 564, (S)-1-(4-amino-5-(4-(3-isopropyl-2-(2-methylpyridin-4-yl)-1H-indol-5-yl)piperidin-1-yl)-5-oxopentyl)urea] |  |  |  | 80.1 | 202 | 6560 |  | 
19 | CCC(C)CN(CCO)C(=O)CN1CCC(c2ccc3[nH]c(-c4cc(C)nc(C)c4)c(C(C)C)c3c2)CC1 (stereo not drawn) [Example 297, 2-(4-(2-(2,6-dimethylpyridin-4-yl)-3-isopropyl-1H-indol-5-yl)piperidin-1-yl)-N-(2-hydroxyethyl)-N-(2-methylbutyl)acetamide] |  |  |  | 43.6 | 13.4 | 710 |  | 
20 | Cc1cc(-c2[nH]c3ccc(C4CCN(C(=O)c5cnn(C)c5)CC4)cc3c2C(C)C)cc(C)n1 [Example 132, (4-(2-(2,6-dimethylpyridin-4-yl)-3-isopropyl-1H-indol-5-yl)piperidin-1-yl)(1-methyl-1H-pyrazol-4-yl)methanone] |  |  |  | 90.8 | 4.2 | 46900 |  | 
21 | CNC(=O)C(=O)N1CCC(c2ccc3[nH]c(-c4cc(C)nc(C)c4)c(C(C)C)c3c2)CC1 [Example 204, 2-(4-(2-(2,6-dimethylpyridin-4-yl)-3-isopropyl-1H-indol-5-yl)piperidin-1-yl)-N-methyl-2-oxoacetamide] |  |  |  | 62.9 | 5.7 | 17200 |  | 
22 | Cc1cc(-c2[nH]c3ccc(C4CCN(C(=O)CNC(C)C)CC4)cc3c2C(C)C)cc(C)n1 [Example 344, 1-(4-(2-(2,6-dimethylpyridin-4-yl)-3-isopropyl-1H-indol-5-yl)piperidin-1-yl)-2-(isopropylamino)ethan-1-one] |  |  |  | 8.4 | 2.5 | 485 |  | 
23 | Cc1cc(-c2[nH]c3ccc(C4CCN(CC(=O)NCC(F)(F)F)CC4)cc3c2C(C)C)cc(C)n1 [Example 214, 2-(4-(2-(2,6-dimethylpyridin-4-yl)-3-isopropyl-1H-indol-5-yl)piperidin-1-yl)-N-(2,2,2-trifluoroethyl)acetamide] |  |  |  | 12.8 | 6.2 | 1220 |  | 
24 | Cc1cc(-c2[nH]c3ccc(C4CCN(C(=O)CNCC5CC5)CC4)cc3c2C(C)C)cc(C)n1 [Example 339, 2-((cyclopropylmethyl)amino)-1-(4-(2-(2,6-dimethylpyridin-4-yl)-3-isopropyl-1H-indol-5-yl)piperidin-1-yl)ethan-1-one] |  |  |  | 13.3 | 2.8 | 869 |  | 
25 | Cc1cc(-c2[nH]c3ccc(C4CCN(CC(=O)N(C)C)CC4)cc3c2C(C)C)cc(C2CC2)n1 [Example 505, 2-(4-(2-(2-cyclopropyl-6-methylpyridin-4-yl)-3-isopropyl-1H-indol-5-yl)piperidin-1-yl)-N,N-dimethylacetamide] |  |  |  | 27.1 | 5.9 | 710 |  | 
26 | Cc1cc(-c2[nH]c3ccc(C4CCN(CC(=O)NCC5CCCO5)CC4)cc3c2C(C)C)cc(C)n1 (stereo not drawn) [Example 266, 2-(4-(2-(2,6-dimethylpyridin-4-yl)-3-isopropyl-1H-indol-5-yl)piperidin-1-yl)-N-((tetrahydrofuran-2-yl)methyl)acetamide] |  |  |  | 10.8 | 3.2 | 522 |  | 
27 | CCCNCC(=O)N1CCC(c2ccc3[nH]c(-c4cc(C)nc(C)c4)c(C(C)C)c3c2)CC1 [Example 348, 1-(4-(2-(2,6-dimethylpyridin-4-yl)-3-isopropyl-1H-indol-5-yl)piperidin-1-yl)-2-(propylamino)ethan-1-one] |  |  |  | 11.3 | 3.6 | 425 |  | 
